Tested on: greenhouse red spider mite (Tetranychus urticae)
Assay: Tetranychus urticae spray test, OP-resistant (TETRUR), bean leaf disks
Assay type: in vivo
Settings: application rate 500 g/ha, after 6 days; for pest or weed control at 500 g/ha: Tetranychus urticae, foliar, 144 h, read-out: efficacy (spider mites killed)
Protocol: After 6 days, the effect in % is determined.

| Structure (SMILES) | pest or weed control at 500 g/ha | efficacy (spider mites killed) |
| --- | --- | --- |
| Cc1cc(C)c([S+]([O-])CC(F)(F)F)cc1/N=C1\SCC(=O)N1CC(F)(F)F (centres unmarked) [Ib-141] | 100% |  |
| CN/C(=N\c1cc(SCC(F)(F)F)c(Cl)cc1Cl)c1ccc(C(F)(F)F)nc1 [Ia-264] | 90% |  |
| Cc1cc(F)c(/N=C(\c2ccc(C(F)(F)F)cc2)N(C)C)cc1[S+]([O-])CC(F)(F)F (centres unmarked) [Ib-124] | 90% |  |
| CN(C)/C(=N\c1cc(SCC(F)(F)F)c(Cl)cc1Cl)C(F)(F)F [Ia-57] | 100% |  |
| O=C1CS/C(=N\c2ccc(Cl)c(SCC(F)(F)F)c2)N1CC(F)(F)F [Ia-194] | 100% |  |
| Cc1cc(F)c(/N=C(\NC2CCS(=O)(=O)C2)C2CC2)cc1SCC(F)(F)F (centres unmarked) [Ia-247] | 100% |  |
| Cc1cc(F)c(/N=C2\CCCCN2C)cc1[S+]([O-])CC(F)(F)F (centres unmarked) [Ib-52] | 100% |  |
| CN(C)/C(=N\c1cc(SCC(F)(F)F)c(Cl)cc1Cl)c1ccc(Cl)cc1 [Ia-211] | 100% |  |
| [O-][S+](CC(F)(F)F)c1cc(/N=C(\NCC(F)F)C2CC2)c(Cl)cc1Cl (centres unmarked) [Ib-129] | 100% |  |
| C/C=C/C=C/C(=N/c1cc(SCC(F)(F)F)c(C)cc1F)NC(C)CC (centres unmarked) [Ia-178] | 90% |  |
| Cc1cc(F)c(/N=C(/C2CC2)N(C)C)cc1[S+]([O-])CC(F)(F)F (centres unmarked) [Ib-51] | 100% |  |
| CN(C)/C(=N\c1cc([S+]([O-])CC(F)(F)F)c(Cl)cc1Cl)c1ccccc1 (centres unmarked) [Ib-127] | 100% |  |
| Cc1cc(F)c(/N=C(\N(C)C)C2(C(C)C)CC2(Cl)Cl)cc1SCC(F)(F)F (centres unmarked) [Ia-106] | 90% |  |
| CCN/C(=N\c1cc([S+]([O-])CC(F)(F)F)c(C)cc1F)C1CC1 (centres unmarked) [Ib-46] | 100% |  |
| Cc1cc(F)c(/N=C(\NC2CC2)c2ccc(Cl)nc2)cc1SCC(F)(F)F [Ia-158] | 100% |  |
| CN/C(=N/c1cc(SCC(F)(F)F)c(Cl)cc1F)C(F)(F)F [Ia-52] | 100% |  |
| CN/C(=N/c1cc(SCC(F)(F)F)c(Br)cc1F)C(F)(F)F [Ia-43] | 100% |  |
| Cc1cc(F)c(/N=C(/NC(C)(C)C)C(F)(F)F)cc1[S+]([O-])CC(F)(F)F (centres unmarked) [Ib-50] | 100% |  |
| Cc1cc(F)c(/N=C(\N)C2CCCC2)cc1SCC(F)(F)F [Ia-161] | 100% |  |
| Cc1cc(F)c(/N=C(\c2ccc(C#N)cc2)N(C)C)cc1[S+]([O-])CC(F)(F)F (centres unmarked) [Ib-61] | 100% |  |
| Cc1cc(F)c(/N=C(\NCC(F)(F)F)C2CCC2)cc1SCC(F)(F)F [Ia-261] | 90% |  |

| Structure (SMILES) | pest or weed control at 500 g/ha | efficacy (spider mites killed) |
| --- | --- | --- |
| Cc1ccc(/N=C2\SCC(=O)N2CC(F)(F)F)cc1[S+]([O-])CC(F)(F)F (centres unmarked) [Ib-139] | 100% |  |
| Cc1cc(F)c(/N=C(\c2ccc(C(F)(F)F)nc2)N(C)C)cc1[S+]([O-])CC(F)(F)F (centres unmarked) [Ib-75] | 100% |  |
| Cc1cc(F)c(/N=C(\N)c2cccnc2)cc1SCC(F)(F)F [Ia-40] | 100% |  |
| Cc1cc(C)c([S+]([O-])CC(F)(F)F)cc1/N=C(/c1ccccc1)N(C)C (centres unmarked) [Ib-126] | 100% |  |
| COC/C(N)=N/c1cc(SCC(F)(F)F)c(C)cc1F [Ia-82] | 100% |  |
| Cc1ccc(/C(=N/c2cc(SCC(F)(F)F)c(C)cc2F)N2CCOCC2)cc1 [Ia-221] | 100% |  |
| Cc1cc(F)c(/N=C(\N)c2ccncc2)cc1SCC(F)(F)F [Ia-73] | 100% |  |
| Cc1cc(F)c(/N=C(\N)C2CCC2)cc1[S+]([O-])CC(F)(F)F (centres unmarked) [Ib-99] | 100% |  |
| Cc1cc(F)c(/N=C(\N)c2ccncn2)cc1[S+]([O-])CC(F)(F)F (centres unmarked) [Ib-65] | 100% |  |
| Cc1cc(F)c(/N=C(/NCC2CC2)C(F)(F)F)cc1[S+]([O-])CC(F)(F)F (centres unmarked) [Ib-29] | 100% |  |
| Cc1cc(C)c(SCC(F)(F)F)cc1/N=C(\NC1CC1)c1ccc(Cl)nc1 [Ia-232] | 90% |  |
| CN/C(=N/c1cc([S+]([O-])CC(F)(F)F)c(Cl)cc1F)C(F)(F)F (centres unmarked) [Ib-41] | 90% |  |
| Cc1cc(F)c(/N=C(\c2ccc(F)cc2)N(C)C)cc1[S+]([O-])CC(F)(F)F (centres unmarked) [Ib-60] | 90% |  |
| CN/C(=N/c1cc(SCC(F)(F)F)c(F)cc1Cl)C(F)(F)F [Ia-97] | 100% |  |
| Cc1cc(Cl)c(/N=C(/c2ccc(Cl)cc2)N(C)C)cc1SCC(F)(F)F [Ia-71] | 100% |  |
| N/C(=N\c1cc(SCC(F)(F)F)c(Cl)cc1Cl)c1ccncc1 [Ia-172] | 90% |  |
| CN/C(=N\c1cc(SCC(F)(F)F)c(C)cc1F)c1ccc(Cl)cc1 [Ia-60] | 100% |  |
| Cc1cc(C)c(SCC(F)(F)F)cc1/N=C1\CCCN1C [Ia-105] | 90% |  |
| CN/C(=N\c1cc([S+]([O-])CC(F)(F)F)c(Cl)cc1C)C(F)(F)F (centres unmarked) [Ib-90] | 100% |  |
| CN/C(=N\c1cc([S+]([O-])CC(F)(F)F)c(Cl)cc1C)c1cccnc1 (centres unmarked) [Ib-103] | 90% |  |
| Cc1cc(F)c(/N=C(\c2ccc(F)cc2)N(C)C)cc1SCC(F)(F)F [Ia-128] | 90% |  |

| Structure (SMILES) | pest or weed control at 500 g/ha | efficacy (spider mites killed) |
| --- | --- | --- |
| CN/C(=N/c1cc(SCC(F)(F)F)c(C)cc1F)c1cccc(F)c1 [Ia-126] | 100% |  |
| CN/C(=N\c1cc([S+]([O-])CC(F)(F)F)c(C)cc1F)c1cccc(Cl)c1 (centres unmarked) [Ib-76] | 100% |  |
| N/C(=N\c1cc(SCC(F)(F)F)c(Cl)cc1Cl)c1ccc(Cl)cc1 [Ia-266] | 90% |  |
| O=C1CS/C(=N\c2cc([S+]([O-])CC(F)(F)F)ccc2F)N1CC(F)(F)F (centres unmarked) [Ib-117] | 100% |  |
| Cc1cc(C)c(SCC(F)(F)F)cc1/N=C(/c1cccnc1)N(C)C [Ia-167] | 90% |  |
| Cc1cc(C)c([S+]([O-])CC(F)(F)F)cc1/N=C(\NCC(F)(F)F)C1CCCC1 (centres unmarked) [Ib-155] | 90% |  |
| Cc1cc(F)c(/N=C(\N)c2cccnc2)cc1[S+]([O-])CC(F)(F)F (centres unmarked) [Ib-63] | 100% |  |
| Cc1cc(Cl)c(/N=C(\N)C(F)(F)C(F)(F)Cl)cc1SCC(F)(F)F [Ia-30] | 100% |  |
| Cc1cc(C)c(SCC(F)(F)F)cc1/N=C(/c1ccccc1)N(C)C [Ia-240] | 90% |  |
| CN/C(=N\c1cc(SCC(F)(F)F)c(C)cc1C)c1ccccn1 [Ia-214] | 100% |  |
| FC(F)CN/C(=N\c1cc(SCC(F)(F)F)c(Cl)cc1Cl)C1CC1 [Ia-253] | 90% |  |
| CN/C(=N\c1cc([S+]([O-])CC(F)(F)F)c(C)cc1C)c1ccc(Cl)cc1 (centres unmarked) [Ib-100] | 100% |  |
| Cc1cc(F)c(/N=C(\N)C(F)(F)C(F)(F)Cl)cc1SCC(F)(F)F [Ia-47] | 100% |  |
| Cc1cc(F)c(/N=C(\c2ccccc2F)N(C)C)cc1SCC(F)(F)F [Ia-147] | 100% |  |
| Cc1cc(F)c(/N=C(/NC2COC2)C(F)(F)F)cc1SCC(F)(F)F [Ia-54] | 100% |  |
| CN/C(=N/c1cc(SCC(F)(F)F)c(C)cc1F)c1ccc(F)cc1 [Ia-144] | 100% |  |
| Cc1ccc(/N=C(/N)C(F)(F)F)cc1SCC(F)(F)F [Ia-213] | 100% |  |
| CN/C(=N/c1cc(SCC(F)(F)F)c(Br)cc1Br)C(F)(F)F [Ia-37] | 100% |  |
| Cc1cc(C)c([S+]([O-])CC(F)(F)F)cc1/N=C(\N)c1ccccn1 (centres unmarked) [Ib-102] | 90% |  |
| Cc1cc(F)c(/N=C(\c2ccc(C#N)cc2)N(C)C)cc1[S+]([O-])CC(F)(F)F (centres unmarked) [Ib-77] |  | 90% |
| CN(C)/C(=N/c1cc([S+]([O-])CC(F)(F)F)c(Cl)cc1F)C(F)(F)F (centres unmarked) [Ib-32] | 100% |  |

| Structure (SMILES) | pest or weed control at 500 g/ha | efficacy (spider mites killed) |
| --- | --- | --- |
| Cc1cc(F)c(/N=c2\scc(C3(Cl)CC3)n2CC(F)(F)F)cc1SCC(F)(F)F [Ia-276] | 100% |  |
| Cc1cc(F)c(/N=c2\snc(C)n2C)cc1[S+]([O-])CC(F)(F)F (centres unmarked) [Ib-174] | 100% |  |
| COC/C(N)=N/c1cc(SCC(F)(F)F)c(Cl)cc1Cl [Ia-258] | 90% |  |
| N/C(=N\c1cc([S+]([O-])CC(F)(F)F)c(Cl)cc1Cl)C1(Cl)CC1 (centres unmarked) [Ib-64] | 100% |  |
| CN/C(=N\c1cc(SCC(F)(F)F)c(C)cc1F)c1ccccc1Cl [Ia-69] | 100% |  |
| CN/C(=N\c1cc([S+]([O-])CC(F)(F)F)c(Cl)cc1Cl)c1ccncc1 (centres unmarked) [Ib-152] | 90% |  |
| Cc1cc(Cl)c([S+]([O-])CC(F)(F)F)cc1/N=C(\N)c1cnccn1 (centres unmarked) [Ib-153] | 90% |  |
| Cc1cc(F)c(/N=C2\CCCN2C(C)C(F)(F)F)cc1[S+]([O-])CC(F)(F)F (centres unmarked) [Ib-169] | 100% |  |
| Cc1cc(F)c(/N=C2\SCC(=O)N2C2CC2)cc1[S+]([O-])CC(F)(F)F (centres unmarked) [Ib-135] | 100% |  |
| CN/C(=N/c1cc(SCC(F)(F)F)c(C)cc1F)c1cccc(C(F)(F)F)c1 [Ia-203] | 100% |  |
| Cc1cc(F)c(N=C(N)CC#N)cc1SCC(F)(F)F [Ia-132] | 100% |  |
| Cc1cc(F)c(/N=C2/CCCN2CC(F)F)cc1SCC(F)(F)F [Ia-55] | 100% |  |
| Cc1cc(F)c(/N=C(/C2CC2)N(C)C)cc1SCC(F)(F)F [Ia-93] | 100% |  |
| COc1cc(C)c(SCC(F)(F)F)cc1/N=C(\N)c1ccncn1 [Ia-260] | 90% |  |
| Cc1cc(C)c([S+]([O-])CC(F)(F)F)cc1/N=C(\NC(C)C(F)(F)F)C1CC1 (centres unmarked) [Ib-160] | 100% |  |
| Cc1cc(C)c(SCC(F)(F)F)cc1/N=C(\N)c1ccncc1 [Ia-95] | 100% |  |
| CN1CCCC/C1=N\c1cc(SCC(F)(F)F)c(Cl)cc1Cl [Ia-62] | 90% |  |
| CCN(C)/C(=N\c1cc(SCC(F)(F)F)c(C)cc1C)c1ccc(Cl)cc1 [Ia-231] | 90% |  |
| CN/C(=N/c1cc([S+]([O-])CC(F)(F)F)c(C)cc1F)c1cccc(C(F)(F)F)c1 (centres unmarked) [Ib-113] | 100% |  |
| CCN/C(=N\c1cc(SCC(F)(F)F)c(C)cc1C)c1cccnc1 [Ia-224] | 100% |  |

— patent US10051861B2, “N-arylamidine-substituted trifluoroethyl sulfide derivatives as acaricides and insecticides” (BAYER CROPSCIENCE AG, priority 2011, dated 2018)
